# From patent US20260232758A1, “Low Cost Efficient Intracellular Delivery of Proteins and Nucleic Acids via Hydrophobic Ion Pairing” (Georgia Tech Research Corporation, priority 2023, published 2026)
# Key:
# [1] = cited from earlier work
# red blood cells = test: Hemolytic activity assay (hemoglobin release from red blood cells); assay type: cell-based
# Description: FIG. 7 provides hemolytic activity for Cytochrome C, OA, SD, HIP CytC OA, and HIP CytC SD at 37° C. and 4° C. to show the influence of membrane stiffness on membrane interaction, in accordance with some embodiments of the present disclosure. 20 μM CytC was given to each group and the concentration of counterion given was consistent with the charge ratios used for delivery experiments. Washed red blood cells were diluted to 0.5% v/v in PBS and 1% v/v Triton X-100 was used as the positive control.
# Washed red blood cells (RBC's) were diluted to a 5% v/v concentration in PBS. 100 μL of nanoparticles or treatment were incubated with 10 μL RBC's at 37° C. for 1 hour in a 96 well plate. After incubation with HIP treatment groups, the microplate reader was used to measure released hemoglobin from membrane disruption using 541 nm and subtracting background at 561 nm, then normalizing hemolytic activity to 5% Triton X-100. For imaging RBC's and NIH3T3/eGFP cells, an epifluorescent microscope (Zeiss Axio Observer Z1) with an 40× lens. […]
# [2] = Dynamic light scattering: z-average size and polydispersity of HIP complexes; assay type: physicochemical; details: DLS
# Description: Size and zeta potential were measured using dynamic light scattering (DLS) using Malvern Instruments Zetasizer NanoZS intensity mode with a 4 mW He—Ne laser with 633 nm wavelength to detect backscattering) (173° using 1× for DLS or 0.1× PBS for zeta potential at pH 7.4 solvent conditions and protein material selection. Z-average values were used for HIP complex size. Electrophoretic mobility was converted to zeta potential using the Smoluchowski approximation. Imaging of solutions was performed using an epifluorescence microscope (Zeiss Axio Observer Z1) using a 100× oil immersion lens. Transmission electron microscopy (TEM) grids were prepared using 10 μL sample on copper grids, letting the sample adhere for 5 minutes, washing in water for 30 seconds, staining with 1% phosphotungstic acid for 10 seconds, washing again for 30 seconds, and drying overnight. A JEOL 100 CX-II TEM was utilized to visualize samples.
Compound,Log P [1],hemolytic activity at reduced temperature (red blood cells; 4° C. compared with 37° C.),polydispersity index (PDI) [2],z-average hydrodynamic diameter ([2]; 1× PBS pH 7.4) [nm],"relative hemolytic activity (red blood cells; 37° C., same concentration as in HIP CytC complexes)"
"c1ccc(CCNCc2ccccc2)cc1 [benethamine, N-benzyl-2-phenylthanamine]",3.6,–,–,–,–
"CCCCC(CC)COC(=O)CC(C(=O)OCC(CC)CCCC)S(=O)(=O)[O-].[Na+] (stereo not drawn) [sodium docusate, reference compound]",5.2,remained high,–,–,–
CytC: 12.4 kDa positively charged protein; induces apoptosis upon delivery to the mitochondrial membrane,–,–,0.542±0.17,729±460,greater than 100%
